These results are taken from article PMC10269561, “Absence of Clinically Meaningful Drug-Drug Interactions with Rezafungin: Outcome of Investigations” (Microbiology Spectrum, 2023).

Read-outs that look alike come from different tables or passages of the source.

The conditions of the series: for AUC0–t, geometric LSM value, + rezafungin / AUC0–∞, geometric LSM value, + rezafungin / Cmax, geometric LSM value, + rezafungin / AUC0–t, geometric LSM value, alone / AUC0–∞, geometric LSM value, alone / Cmax, geometric LSM value, alone: Study 1, healthy subjects, plasma, LC-MS/MS, NCA; for AUC0–t, geometric LSM value, alone / AUC0–∞, geometric LSM value, alone / Cmax, geometric LSM value, alone: oral repaglinide 1 mg, metformin 500 mg, pitavastatin 2 mg, caffeine 100 mg, midazolam 2 mg or digoxin 0.25 mg without rezafungin; for Change in exposure of the oral probe drug on coadministration of i.v. rezafungin vs dosing alone: 90% CIs of GMRs of Cmax, AUC0–t, AUC0–∞ within 80 to […]; for Observation, Cmax (change with rezafungin relative to drug alone) / Observation, AUC (change with rezafungin relative to drug alone): class symbol; for Observation, AUC (change with rezafungin relative to drug alone): AUC0–t and AUC0–∞ unless otherwise noted; for AUC0–t, geometric mean ratio (drug + rezafungin / drug alone) / AUC0–∞, geometric mean ratio (drug + rezafungin / drug alone) / Cmax, geometric mean ratio (drug + rezafungin / drug alone): geometric LSM ratio x 100, ANOVA. On the procedure:
Both were phase 1, single-center, open-label, crossover inpatient studies that were conducted in the United States in healthy adults (study 1, aged 26 to 55 years; study 2, aged 21 to 59 years). The studies were compliant with the International Council for Harmonisation of Technical Requirements for Pharmaceuticals for Human Use E6 guideline for good clinical practice ([54]) and the Declaration of Helsinki. The study protocols were approved by the institutional review board associated with the study site, and all subjects provided written informed consent.
After screening, subjects were admitted to the clinical research unit (CRU) prior to the first dose of rezafungin (from day −22) and were discharged from the CRU on day 22. Nine oral substrate drugs were administered as part of a cocktail containing two or more drugs once before and once after receiving rezafungin on a schedule designed to allow the washout of the drugs in the cocktail between doses and limit interactions with other drugs (Fig. 4A). […] A loading dose of rezafungin for injection (600 mg) was administered over 1 h on day 1, followed by two once-weekly 400-mg doses over 1 h on days 10 and 15. Due to a short delay in the availability of the investigation study drug, the second once-weekly dose of rezafungin and the second set of oral substrate drugs were administered on day 10 instead of day 8, although the time between doses remained sufficient for all originally planned PK samplings through 96 h postdose and for the adequate washout of the substrate drugs. The total duration of treatment was up to 89 days, including 45 days of screening and 44 days of treatment in the CRU.
In study 1, predose PK blood samples were collected on each dosing day ≤60 min prior to the administration of the substrate drugs with or without rezafungin. Multiple blood samples were collected relative to each dose, with collection times ranging from 15 min to 168 h postdose, depending on the PK profile of each probe substrate drug (Table S5). For study 2, multiple blood samples were collected, and the timing of collection varied according to the PK profile of each coadministered drug from predose to 96 h postdose (Table S6). PK blood samples were collected for rezafungin at sample times ranging from predose to 168 h postdose.
For both studies, validated liquid chromatography-tandem mass spectrometry (LC-MS/MS) methods were used for PK assessments to analyze the concentrations of rezafungin and coadministered drugs. All plasma concentrations and actual blood sampling times were subjected to noncompartmental PK analysis. PK parameter calculations were performed using noncompartmental analysis (NCA) (Phoenix WinNonlin version 8.0 or higher). The PK parameters analyzed included Cmax; the time to reach the maximum observed plasma concentration (Tmax); AUC0–t (using the log-linear trapezoidal rule, where t was the last time point with a measurable concentration); AUC0–∞ (calculated as AUC0–t + Clast/λz); the AUC from 0 to 168 h (AUC0–168); the percentage of AUC0–∞ extrapolated (AUC%Extrap); the terminal elimination rate constant, determined by linear regression of the terminal linear segment of the log concentration-versus-time curve (λz); and the elimination half-life (t1/2), calculated as ln(2)/λz.
The primary analysis of the drug interaction effect on substrate drugs following rezafungin administration was assessed by the ratio of the geometric least-squares (LS) mean of each substrate drug administered with rezafungin to that without rezafungin. […] PK parameters were statistically analyzed using an analysis of variance (ANOVA) model. […] However, noncompliance with these no-effect boundaries was not considered evidence of a significant DDI. Statistical analyses were performed using SAS (version 9.4) and the mixed procedure. Adverse events were descriptively summarized.

The mark [1] stands for this setting: oral metformin 500 mg, pitavastatin 2 mg (day 10) or caffeine 100 mg, efavirenz 50 mg, midazolam 2 mg, digoxin 0.25 mg (day 15) with i.v. rezafungin 400 mg.
The mark [2] stands for this setting: Study 1, rezafungin 400 mg i.v. (day 10 or 15).
Where [3] appears, read: oral repaglinide 1 mg with i.v. rezafungin 600 mg (day 1).
Where [4] appears, read: Study 1, rezafungin 600 mg i.v.

Consider `Cn1c(=O)c2c(ncn2C)n(C)c1=O` [Caffeine], for which, under setting [1], the “AUC0–t, geometric LSM value, + rezafungin” value is recorded as 18,475.36 ng · h/mL; the “AUC0–∞, geometric LSM value, + rezafungin” value is given as 20,853.11 ng · h/mL; the “Cmax, geometric LSM value, + rezafungin” value is recorded as 2,232.88 ng/mL. Moreover, for the setting “efavirenz 50 mg”, the “AUC0–t, geometric LSM value, alone” value was 17,230.22 ng · h/mL; the “AUC0–∞, geometric LSM value, alone” value is recorded as 18,897.70 ng · h/mL; the “Cmax, geometric LSM value, alone” value is recorded as 2,075.44 ng/mL. Also, under “Study 1”, the “Change in exposure of the oral probe drug on coadministration of i.v. rezafungin vs dosing alone” value (“Change in exposure” below) is given as “did not result in statistically significant changes”; the “Observation, Cmax (change with rezafungin relative to drug alone)” value is “↔ (no change (the ratio of the PK parameter value varied by up to ~10%, and the 90% CI was within 80 to 125%))”; the “Observation, AUC (change with rezafungin relative to drug alone)” value is “↔ (no change (the ratio of the PK parameter value varied by up to ~10%, and the 90% CI was within 80 to 125%))”. Under setting [2], the “AUC0–t, geometric mean ratio (drug + rezafungin / drug alone)” value turned out to be 107.23%; the “AUC0–∞, geometric mean ratio (drug + rezafungin / drug alone)” value stood at 110.35%; the “Cmax, geometric mean ratio (drug + rezafungin / drug alone)” value amounted to 107.59%.

As for `C[C@H]1O[C@@H](O[C@H]2[C@@H](O)C[C@H](O[C@H]3[C@@H](O)C[C@H](O[C@H]4CC[C@@]5(C)[C@H](CC[C@@H]6[C@@H]5C[C@@H](O)[C@]5(C)[C@@H](C7=CC(=O)OC7)CC[C@]65O)C4)O[C@@H]3C)O[C@@H]2C)C[C@H](O)[C@@H]1O` [Digoxin], where the note is “Study 1”, the “Change in exposure” value was “did not result in statistically significant changes”.

For `O=C1Nc2ccc(Cl)cc2[C@@](C#CC2CC2)(C(F)(F)F)O1` [Efavirenz], under setting [1], the “AUC0–t, geometric LSM value, + rezafungin” value is given as 7,698.46 ng · h/mL; the “AUC0–∞, geometric LSM value, + rezafungin” value is 16,156.14 ng · h/mL; the “Cmax, geometric LSM value, + rezafungin” value is 300.17 ng/mL. Besides, for the setting “efavirenz 50 mg”, the “AUC0–t, geometric LSM value, alone” value is 7,557.26 ng · h/mL; the “AUC0–∞, geometric LSM value, alone” value is recorded as 14,368.15 ng · h/mL; the “Cmax, geometric LSM value, alone” value amounted to 299.30 ng/mL. Besides, for the setting “Study 1”, the “Change in exposure” value is “did not result in statistically significant changes”; the “Observation, Cmax (change with rezafungin relative to drug alone)” value is “↔ (no change (the ratio of the PK parameter value varied by up to ~10%, and the 90% CI was within 80 to 125%))”; the “Observation, AUC (change with rezafungin relative to drug alone)” value was “↔ (no change (the ratio of the PK parameter value varied by up to ~10%, and the 90% CI was within 80 to 125%))”. Under setting [2], the “AUC0–t, geometric mean ratio (drug + rezafungin / drug alone)” value is listed as 101.87%; the “AUC0–∞, geometric mean ratio (drug + rezafungin / drug alone)” value worked out at 112.44%; the “Cmax, geometric mean ratio (drug + rezafungin / drug alone)” value is on record as 100.29%.

As to `CN(C)C(=N)N=C(N)N` [Metformin], under setting [1], the “AUC0–t, geometric LSM value, + rezafungin” value is 7,257.55 ng · h/mL; the “AUC0–∞, geometric LSM value, + rezafungin” value is 7,373.31 ng · h/mL; the “Cmax, geometric LSM value, + rezafungin” value is 1,115.98 ng/mL. For the setting “efavirenz 50 mg”, the “AUC0–t, geometric LSM value, alone” value is 7,333.63 ng · h/mL; the “AUC0–∞, geometric LSM value, alone” value is 7,446.67 ng · h/mL; the “Cmax, geometric LSM value, alone” value is 1,074.27 ng/mL. In addition, under “Study 1”, the “Change in exposure” value is “did not result in statistically significant changes”; the “Observation, Cmax (change with rezafungin relative to drug alone)” value is “↔ (no change (the ratio of the PK parameter value varied by up to ~10%, and the 90% CI was within 80 to 125%))”; the “Observation, AUC (change with rezafungin relative to drug alone)” value was “↔ (no change (the ratio of the PK parameter value varied by up to ~10%, and the 90% CI was within 80 to 125%))”. In addition, under setting [2], the “AUC0–t, geometric mean ratio (drug + rezafungin / drug alone)” value turned out to be 98.96%; the “AUC0–∞, geometric mean ratio (drug + rezafungin / drug alone)” value is 99.02%; the “Cmax, geometric mean ratio (drug + rezafungin / drug alone)” value was found to be 103.88%.

As for `Cc1ncc2n1-c1ccc(Cl)cc1C(c1ccccc1F)=NC2` [Midazolam], under setting [1], the “AUC0–t, geometric LSM value, + rezafungin” value is 21.62 ng·h/mL; the “AUC0–∞, geometric LSM value, + rezafungin” value turned out to be 23.67 ng·h/mL; the “Cmax, geometric LSM value, + rezafungin” value stood at 8.70 ng/mL. Besides, where the note is “efavirenz 50 mg”, the “AUC0–t, geometric LSM value, alone” value was 21.39 ng·h/mL; the “AUC0–∞, geometric LSM value, alone” value stood at 23.25 ng·h/mL; the “Cmax, geometric LSM value, alone” value is given as 9.00 ng/mL. Besides, where the note is “Study 1”, the “Change in exposure” value is reported as “did not result in statistically significant changes”; the “Observation, Cmax (change with rezafungin relative to drug alone)” value was “↔ (no change (the ratio of the PK parameter value varied by up to ~10%, and the 90% CI was within 80 to 125%))”; the “Observation, AUC (change with rezafungin relative to drug alone)” value is “↔ (no change (the ratio of the PK parameter value varied by up to ~10%, and the 90% CI was within 80 to 125%))”. Under setting [2], the “AUC0–t, geometric mean ratio (drug + rezafungin / drug alone)” value is 101.06%; the “AUC0–∞, geometric mean ratio (drug + rezafungin / drug alone)” value was 101.78%; the “Cmax, geometric mean ratio (drug + rezafungin / drug alone)” value turned out to be 96.73%.

Take `O=C(O)C[C@H](O)C[C@H](O)/C=C/c1c(C2CC2)nc2ccccc2c1-c1ccc(F)cc1` [Pitavastatin]: under setting [1], the “AUC0–t, geometric LSM value, + rezafungin” value was 81.54 ng·h/mL; the “AUC0–∞, geometric LSM value, + rezafungin” value worked out at 90.87 ng·h/mL; the “Cmax, geometric LSM value, + rezafungin” value came to 35.72 ng/mL. Besides, under “efavirenz 50 mg”, the “AUC0–t, geometric LSM value, alone” value was 77.44 ng·h/mL; the “AUC0–∞, geometric LSM value, alone” value was 85.78 ng·h/mL; the “Cmax, geometric LSM value, alone” value came to 36.23 ng/mL. For the setting “Study 1”, the “Change in exposure” value is given as “did not result in statistically significant changes”; the “Observation, Cmax (change with rezafungin relative to drug alone)” value was “↔ (no change (the ratio of the PK parameter value varied by up to ~10%, and the 90% CI was within 80 to 125%))”; the “Observation, AUC (change with rezafungin relative to drug alone)” value was “↔ (no change (the ratio of the PK parameter value varied by up to ~10%, and the 90% CI was within 80 to 125%))”. Under setting [2], the “AUC0–t, geometric mean ratio (drug + rezafungin / drug alone)” value is listed as 105.30%; the “AUC0–∞, geometric mean ratio (drug + rezafungin / drug alone)” value was determined as 105.93%; the “Cmax, geometric mean ratio (drug + rezafungin / drug alone)” value is given as 98.59%.

Take `CCOc1cc(CC(=O)N[C@@H](CC(C)C)c2ccccc2N2CCCCC2)ccc1C(=O)O` [Repaglinide]: under setting [3], the “AUC0–t, geometric LSM value, + rezafungin” value was 23.47 ng·h/mL; the “AUC0–∞, geometric LSM value, + rezafungin” value is 25.16 ng·h/mL; the “Cmax, geometric LSM value, + rezafungin” value was determined as 12.13 ng/mL. Where the note is “efavirenz 50 mg”, the “AUC0–t, geometric LSM value, alone” value worked out at 20.25 ng·h/mL; the “AUC0–∞, geometric LSM value, alone” value turned out to be 21.74 ng·h/mL; the “Cmax, geometric LSM value, alone” value worked out at 11.86 ng/mL. Besides, where the note is “Study 1”, the “Observation, Cmax (change with rezafungin relative to drug alone)” value was “↔ (no change (the ratio of the PK parameter value varied by up to ~10%, and the 90% CI was within 80 to 125%))”. Moreover, the “Magnitude of increase in AUC0–∞ with rezafungin vs drug alone” value (Study 1, from geometric mean ratio) is roughly 16%. Further, under setting [4], the “AUC0–t, geometric mean ratio (drug + rezafungin / drug alone)” value is listed as 115.87%; the “AUC0–∞, geometric mean ratio (drug + rezafungin / drug alone)” value worked out at 115.75%; the “Cmax, geometric mean ratio (drug + rezafungin / drug alone)” value was determined as 102.26%.
